Test results as given in ChEMBL document CHEMBL5375997, “Small Molecule Inhibitors Targeting the "Undruggable" Survivin: The Past, Present, and Future from a Medicinal Chemist's Perspective” (J Med Chem, 2023).

Experiments:
[1] = system: PC-3; test: Cytotoxicity against human PC-3 cells assessed as reduction in cell growth incubated for 72 hrs by SRB assay; type: functional, cell-based; settings: PC-3, 72 h
[2] = system: MDA-MB-231; test: Cytotoxicity against human MDA-MB-231 cells assessed as inhibition of cell growth incubated for 72 hrs by SRB assay; type: functional, cell-based; settings: MDA-MB-231, 72 h
[3] = system: HepG2; test: Cytotoxicity against human HepG2 cells assessed as reduction in cell viability incubated for 72 hrs by SRB assay; type: functional, cell-based; settings: HepG2, 72 h
[4] = system: EL4; test: Cytotoxicity against mouse EL4 cells assessed as inhibition of cell proliferation incubated for 72 hrs by MTT assay; type: functional, cell-based; settings: EL4, 72 h
[5] = system: L1210; test: Antiproliferative activity against mouse L1210 cells assessed as reduction in cell viability incubated for 48 hrs by MTT assay; type: functional, cell-based; settings: L1210, 48 h
[6] = system: PC-3; test: Cytotoxicity against human PC-3 cells assessed as reduction in cell viability incubated for 24 hrs by MTT assay; settings: PC-3, 24 h
[7] = system: LNCaP C4-2; test: Cytotoxicity against human LNCaP C4-2 cells assessed as cell growth inhibition incubated for 24 hrs by MTT assay; type: functional, cell-based; settings: LNCaP C4-2, 24 h
[8] = system: NCI-H69; test: Antiproliferative activity against human NCI-H69 cells assessed as reduction in cell growth; type: functional, cell-based
[9] = system: HCT-116; test: Cytotoxicity against human HCT-116 cells assessed as reduction in cell viability by MTT assay; type: functional, cell-based
[10] = system: MCF7; test: Cytotoxicity against human MCF7 cells assessed as inhibition of cell growth by MTT assay; type: functional, cell-based
[11] = Cytotoxicity against human HepG2 cells assessed as reduction in cell viability by MTT assay; type: functional, cell-based
[12] = system: HeLa; test: Cytotoxicity against human HeLa cells assessed as inhibition of cell growth by MTT assay; type: functional, cell-based
[13] = system: A549; test: Cytotoxicity against human A549 cells assessed as reduction in cell viability by MTT assay; type: functional, cell-based
[14] = system: DU-145; test: Cytotoxicity against human DU-145 cells assessed as reduction in cell viability by SRB assay; type: functional, cell-based
[15] = system: A-375; test: Anticancer activity against human A375 cells assessed as reduction in cell viability incubated for 72 hrs by MTT assay; type: functional, cell-based; settings: A-375, 72 h
[16] = system: CWR22R; test: Cytotoxicity against human 22Rv1 cells assessed as cell growth inhibition; type: functional, cell-based
[17] = system: SK-MEL-5; test: Antiproliferative activity against human SK-MEL-5 cells assessed as reduction in cell viability; type: functional, cell-based
[18] = Tmax in human plasma at 10 mg/kg, iv measured after 24 hrs; type: ADME, organism-based
[19] = Half life in iv dosed human plasma; type: ADME, organism-based
[20] = AUC in mouse plasma at 3 mg/kg, iv measured upto 24 hrs by LC-MS/MS analysis; type: ADME, organism-based; parameters: dose 3 mg/kg, time < 24 hrs, route iv; settings: in vivo
[21] = Clearance in […] at 3 mg/kg, iv incubated for 24 hrs by LC-MS/MS analysis; type: ADME, organism-based; settings: in vivo
[22] = Cmax in […] at 1 mg/kg, iv and measured upto 24 hrs by LC/MS/MS analysis; type: ADME, organism-based; parameters: time < 24 hrs, dose 1 mg/kg, route iv; settings: in vivo
[23] = Half life in human plasma after iv dosing; settings: in vivo
[24] = Cytotoxicity against human HaCaT cells assessed as reduction in cell viability; type: toxicity, cell-based
[25] = Oral bioavailability in mouse plasma; type: ADME, organism-based
[26] = Cmax in […] at 1 mg/kg, po and measured upto 24 hrs by LC/MS/MS analysis; type: ADME, organism-based; parameters: time < 24 hrs, dose 1 mg/kg, route po; settings: in vivo

N#Cc1c(-c2ccc(Cl)cc2)cc(-c2ccc(OCc3ccc(F)cc3)cc2)[nH]c1=O
IC50 [1]: 14.4 µM | IC50 [2]: 14.4 µM | IC50 [3]: 14.4 µM

N#Cc1c(-c2ccccc2)cc(-c2ccc(OCc3ccc(F)cc3)cc2)[nH]c1=O
IC50 [1]: 14.4 µM | IC50 [2]: 14.4 µM | IC50 [3]: 14.4 µM

CO[C@]12CC(=O)O[C@]13C(=O)c1c(cc4cc(O)c5c(c4c1O)CN(C)C5=O)C(=O)[C@]3(O[C@H]1CC[C@H](O)[C@H](C)O1)CO2
IC50 [4]: 112 nM | IC50 [5]: 153 nM

N#Cc1c(-c2ccccc2)cc(-c2ccc(OCc3ccc(F)cc3)cc2)nc1N
IC50 [1]: > 100 µM | IC50 [2]: > 100 µM | IC50 [3]: > 100 µM

N#Cc1c(-c2ccc(Br)cc2)cc(-c2ccc(OCc3ccc(F)cc3)cc2)[nH]c1=S
IC50 [1]: 23 µM | IC50 [2]: 23 µM | IC50 [3]: 23 µM

COc1ccc(-c2cc(-c3ccc(OCc4ccc(F)cc4)cc3)nc(N)c2C#N)cc1
IC50 [1]: > 100 µM | IC50 [2]: > 100 µM | IC50 [3]: > 100 µM

N#Cc1c(-c2ccc(Br)cc2)cc(-c2ccc(OCc3ccc(F)cc3)cc2)[nH]c1=O
IC50 [1]: 14.4 µM | IC50 [2]: 14.4 µM | IC50 [3]: 14.4 µM

COc1cccc(Nc2nc3ccccc3nc2Nc2cccc(OC)c2OC)c1OC
IC50 [6]: 24.8 µM | IC50 [7]: 17.6 µM

N#Cc1c(-c2ccc(Cl)cc2)cc(-c2ccc(OCc3ccc(F)cc3)cc2)[nH]c1=S
IC50 [1]: 23 µM | IC50 [2]: 23 µM | IC50 [3]: 23 µM

Oc1cc(CCCCc2cc(O)c(O)c(O)c2)cc(O)c1O
IC50 [8]: 6 µM

CC[C@@]1(O)C(=O)OCc2c1cc1n(c2=O)Cc2cc3c(-c4ccc(C(F)(F)F)cc4)c4c(cc3nc2-1)OCO4
IC50 [9]: 780 nM | IC50 [10]: 780 nM | IC50 [11]: 780 nM | IC50 [12]: 780 nM | IC50 [13]: 780 nM

N#Cc1c(-c2ccccc2)cc(-c2ccc(OCc3ccc(F)cc3)cc2)[nH]c1=S
IC50 [1]: 23 µM | IC50 [2]: 23 µM | IC50 [3]: 23 µM

Oc1ccc(CCCCc2ccc(O)cc2)cc1
IC50 [8]: 3.9 µM

N#Cc1c(-c2ccc(Cl)cc2)cc(-c2ccc(OCc3ccc(F)cc3)cc2)nc1N
IC50 [1]: > 100 µM | IC50 [2]: > 100 µM | IC50 [3]: > 100 µM

N#Cc1c(-c2ccc(F)cc2)cc(-c2ccc(OCc3ccc(F)cc3)cc2)[nH]c1=O
IC50 [1]: 14.4 µM | IC50 [2]: 14.4 µM | IC50 [3]: 14.4 µM

COCCn1c2c([n+](Cc3cnccn3)c1C)C(=O)c1ccccc1C2=O.[Br-] [SEPANTRONIUM BROMIDE]
IC50 [14]: 4 nM | IC50 [15]: 6 nM | IC50 [16]: 11 nM | IC50 [17]: 4 nM | Tmax [18]: 46 h | half-life [19]: 1580 min | AUC [20]: 1440 ng·h/mL | clearance [21]: 795 mL/min/kg | Cmax [22]: 10.7 ng/mL | half-life [23]: 1030 min

COc1ccc(C[C@@H](C)[C@@H](C)Cc2ccc(OC)c(OC)c2)cc1OC [TERAMEPROCOL]
IC50 [24]: 85 µM | bioavailability [25]: 88.3% | AUC [20]: 2980 ng·h/mL | Cmax [22]: 1060 ng/mL | Cmax [26]: 442 ng/mL
